Data on one substance can be found in paper PMC4492822 (EMBO Molecular Medicine, 2015).

The target in data set [1] is T1, DDX5 (Homo sapiens, UniProt P17844).
T1 construct: Two plates of 70% confluent cells were lysed with IP lysis buffer; endogenous in cells
Nature of the data set: Biotin bead pull-down assay with biotinylated RK-33, immunoblot. In kind it is binding. The note with it: biotinylated RK-33 molecules, 10 μM. The method, then: Mean from 3 replicates with SD. • J, K Colony-forming assay of A549 and H3255 cells treated with RK-33 and with various doses of radiation 4 h later. Curves were fitted with a quadratic polynomial equation. Mean from 2 replicates with SD. P-values were determined by the extra sum of squares F-test. Source data are available online for this figure.
Two plates of 70% confluent cells were lysed with IP lysis buffer (Tris–HCl (pH 7.4) 25 mM, NaCl 150 mM, EDTA 1 mM, NP-40 1%, glycerol 5%, protease inhibitor). […] Streptavidin beads were added and incubated for 1 h at room temperature. The biotin-bead–RK-33 complex was extracted with a magnetic stand and washed seven times with PBS. Proteins were analyzed by immunoblot.

In data set [2] the test system is A549, H1299, H23, and H460. Nature of the data set: MTS viability assay, 72 h, lines with high DDX3 expression. In kind it is cell-based. The note with it: range over A549, H1299, H23, H460. The method, then:
Proliferation was determined by counting cancer cells over time. Cells were seeded at 7.5 × 10^4 cells/well and counted daily with a TC10 automated cell counter (Bio-Rad, Hercules, CA, USA) at least three times. Viability of cancer cells was determined by MTS assay (CellTiter 96® AQueous One Solution, Promega, Madison, WI, USA) as described by the manufacturer. Briefly, 800–2,000 cells were allowed to attach overnight in a 96-well plate, treated with different concentrations of RK-33 and kept for 72 h. MTS reagent was kept for 2 h. Each experiment was repeated a minimum of three independent times.
A general note: Tetrazolium assays rely on reduction of a dye to a coloured formazan, in cell work by metabolically active cells.

Data set [3] concerns A549 cells. Nature of the data set: Colony-forming assay with γ-radiation. It counts as cell-based, human. The note with it: 1 μM and 2 μM, added 4 h before radiation. On the procedure: Cells were irradiated at room temperature with 0.5 Gy/min to the desired dose using a Gammacell 40 ^137Cs irradiator. For in vivo experiments, mice were treated using the Small Animal Radiation Research Platform (Wong et al, [2008]). The tumors were irradiated with a circular beam of 1 cm diameter.
Cells were counted, plated, and allowed to attach overnight. RK-33 at specified doses was added 4 h before radiation was delivered. Colonies were stained and counted approximately 10 days after irradiation. Surviving fraction was calculated by dividing the number of colonies formed by the number of cells plated times the plating efficiency. Curves were fitted with a quadratic polynomial equation. P-values were determined by the extra sum of square F-test.

Data set [4] can be described thus: Toxicology in SCID mice (histopathology, blood values). It counts as in vivo. On the procedure: Figure 5 Toxicity studies of RK-33 in mice • Following injection of 20 mg/kg of RK-33, twice a week for 7 weeks, extensive histopathological examination was carried out following necropsy. Identical patterns were observed both in the control and in the treated mice (n = 2). Samples were stained with H&E. Scale bar is 50 μm. • Pharmacokinetics of RK-33 in SCID mice at various time intervals. Results are mean ± SD from 5 mice. LC-MS/MS method was used to determine concentration of RK-33 in mouse plasma and tissue. • Liquid chromatography–mass spectrometry (LC-MS/MS) analysis was performed to determine different metabolites of RK-33. • RK-33 and metabolites characterized by LC-MS/MS in human liver microsomes using the scan mode function of the LC-MS/MS. • HAPI cells were treated with RK-33 (10 μM), HA14-1 (25 μM), or DMSO vehicle, followed by oligomycin (oligo, 0.5 μg/ml), FCCP (3 μM), and antimycin A (AA, 1 μM) while oxygen consumption rate (OCR) was measured. Pyruvate (10 mM) was added in combination with FCCP to ensure that substrate supply was not rate-limiting for maximal OCR. Data are mean ± SD from 2 to 3 wells and representative of independent experiments performed with two different HAPI passages. OCR is baseline-normalized to the point prior to drug or vehicle addition. • HAPI microglial cells were incubated for 1 h in glucose-free XF24 assay medium that was supplemented with 2-deoxyglucose (50 mM) and pyruvate (10 mM). RK-33 (10 μM), oligomycin (0.5 μg/ml), or vehicle control was additionally present as indicated. Results are mean ± SD from 12 replicates pooled from experiments using two consecutive passages. Significance was assessed by two-sided, unpaired t-test. TEXT PRINTED IN THE PICTURE: (B) RK-33: t½e (hours): 7.31 ± 1.16 (Organ: plasma); t½e (hours): 6.70 ± 1.17 (Organ: kidney); t½e (hours): 10.01 ± 1.24 (Organ: liver); t½e (hours): 8.92 ± 1.45 (Organ: spleen); t½e (hours): 7.48 ± 1.18 (Organ: breast); t½e (hours): 7.25 ± 1.25 (Organ: lung); t½e (hours): 6.72 ± 1.23 (Organ: brain); t½e (hours): 6.25 ± 1.19 (Organ: muscle) | (C) RK-33: Mouse Microsomes + NADPH: 100% (Inc. Time: 0); Mouse Microsomes - NADPH: 100% (Inc. Time: 0); Human Microsomes + NADPH: 100% (Inc. Time: 0); Human Microsomes - NADPH: 100% (Inc. Time: 0); Mouse Microsomes + NADPH: 11% (Inc. Time: 30); Mouse Microsomes - NADPH: 80% (Inc. Time: 30); Human Microsomes + NADPH: 49% (Inc. Time: 30); Human Microsomes - NADPH: 85% (Inc. Time: 30); Mouse Microsomes + NADPH: 4% (Inc. Time: 60); Mouse Microsomes - NADPH: 69% (Inc. Time: 60); Human Microsomes + NADPH: 35% (Inc. Time: 60); Human Microsomes - NADPH: 73% (Inc. Time: 60) DOUBTS OF THE COPYIST ABOUT THIS PICTURE: Panel C prints no substance label of its own; RK-33 is taken from the other panels of the same picture / Panel C prints no unit for Inc. Time / Panel B, column head: read as t½e (hours), small print; the sign after t may be 1/2 e / Panel D (retention times and [M+H]+ of RK-33 and peaks M1-M3) was left out as LC-MS data

Broadly, the IC50 is the concentration that inhibits the measured activity by half.

T1 sequence (P17844 whole entry): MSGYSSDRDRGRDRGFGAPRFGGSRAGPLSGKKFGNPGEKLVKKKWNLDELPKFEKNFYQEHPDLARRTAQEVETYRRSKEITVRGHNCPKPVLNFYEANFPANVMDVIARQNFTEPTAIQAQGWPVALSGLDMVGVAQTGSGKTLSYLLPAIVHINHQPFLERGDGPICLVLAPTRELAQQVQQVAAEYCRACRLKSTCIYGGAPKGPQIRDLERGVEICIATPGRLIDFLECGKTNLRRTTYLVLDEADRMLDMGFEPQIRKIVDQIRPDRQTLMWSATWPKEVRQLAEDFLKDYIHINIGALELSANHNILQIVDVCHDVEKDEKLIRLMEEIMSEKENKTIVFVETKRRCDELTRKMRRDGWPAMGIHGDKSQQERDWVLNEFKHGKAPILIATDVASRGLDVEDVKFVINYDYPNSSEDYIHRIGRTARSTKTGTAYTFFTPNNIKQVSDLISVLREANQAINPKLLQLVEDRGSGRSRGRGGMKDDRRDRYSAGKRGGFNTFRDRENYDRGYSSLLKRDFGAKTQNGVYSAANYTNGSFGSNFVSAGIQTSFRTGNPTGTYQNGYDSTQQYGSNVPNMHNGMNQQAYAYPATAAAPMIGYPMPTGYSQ

Regarding “diimidazo[4,5-d:4′,5′-f]-[1,3]diazepine [RK-33]”, the “binding to DDX5 in pull-down” value in data set [1] is “not to the closely related proteins DDX5 and DDX17”. Also, in data set [2], the half-inhibitory concentration (IC50) fell in the range of 4.4 to 8.4 µM. Also, the “sensitization to γ-radiation” value in data set [3] is “sensitized A549 cells to γ-radiation”. In addition, the “toxicity at the dose used” value in data set [4] (SCID mice) is listed as “non-toxic”. In data set [4] (mouse, in vivo), the ALP was 69 ± 5 U/l, the ALT came to 72 ± 34 U/l, the AST amounted to 224 ± 152 U/l and the Albumin came out at 3.05 ± 0.05 g/dL. Besides, in data set [4] (mouse, in vivo), the Amylase was 905 ± 42 U/l, the BUN was 22 ± 2.0 mg/dL, the Calcium was 9.1 ± 0.2 mg/dL and the Cholesterol is 120 ± 1 mg/dL. In addition, in data set [4] (mouse, in vivo), the Creatinine stood at 0.35 ± 0.05 mg/dL, the Glucose stood at 166 ± 4 mg/dL, the Hb was determined as 14.7 ± 0.6 g/dL and the MCV is 55.1 ± 1.3 fL. In data set [4] (mouse, in vivo), the RBC is given as 10.01 ± 0.77 M/μl, the Thrombocytes was 746 ± 185 K/μl, the Triglycerides came to 215 ± 14 mg/dL and the WBC was 5.83 ± 2.61 K/μl.
